Columns and labels:
GzmB [1] = target: T1, GzmB (Homo sapiens, UniProt P10144); assay: Inhibition of Cell Detachment by GzmB Assay (Example D7); format: cell-based; settings: 50 uM inhibitor; 100 nM GzmB; HDFa primary human fibroblasts; 7 hours; MTS absorbance 490 nm; read-out: Percent Inhibition of cell detachment at 50 uM
Description: HDFa primary human fibroblasts were plated at 10 k/well in 200 ul, approximately 20 hrs before treatment. The next day, controls and 100 nM GzmB (recombinant, human) plus or minus inhibitor treatments were prepared in serum-free media. GzmB and inhibitor were incubated for 20 minutes at RT before adding to cells. Before addition, media and serum was removed from the cells and the cells were washed with PBS (1×), using pipettes to prevent disturbing the cells. Treatment preparations (100 ul) were added to the wells and incubated for 7 hours in a tissue culture incubator. After 7 hours, media and treatments were removed and the cells were washed with PBS (1×) to removed detached cells, using pipettes only. Phase pictures were taken then the PBS was removed and replaced with 100 uL of serum-free media and 20 uL of MTS and the cells were allowed to incubate for 3 hours in a cell culture incubator. After 3 hours the absorbance was read at 490 nm and a percent inhibition value for the treatments with inhibitors was determined from the control wells.

GzmB [2] = target: T1, GzmB; assay: Inhibition of Fibronectin Cleavage by GzmB (Example D8); format: biochemical; settings: 20 nM granzyme B, Hilyte Fluor 488 labeled Fibronectin, 30° C.; for inhibition at 0.62 µM: 0.62 uM inhibitor, read-out: Percent Inhibition at Inhibitor Concentration 0.62 uM; for inhibition at 5.56 µM: 5.56 uM inhibitor, read-out: Percent Inhibition at Inhibitor Concentration 5.56 uM; for inhibition at 50 µM: 50 uM inhibitor, read-out: Percent Inhibition at Inhibitor Concentration 50 uM
Description: Black, 96 well high-binding assay plates (Griener Bio-one) were treated overnight at 4° C. with 40 uL of 8 ug/mL Hilyte Fluor 488 labeled Fibronectin (Cytoskeleton, Inc). After fibronectin coating, plates were washed 3 times in buffer (20 mM Tris-HCl, pH 7.4, 20 mM NaCl) then once with granzyme B assay buffer (50 mM HEPES, pH 7.5, 0.1% CHAPS). After washing, 50 uL of granzyme B assay buffer was added to each fibronectin-coated well. In a separate non-binding 96 well assay plate 5 uL of 20× inhibitor serial dilution stocks were added to 45 uL of 2.22× GzmB mix to establish inhibition (enzyme/inhibitor mixes were all prepared in granzyme B assay buffer and were incubated first at room temperature for 20 minutes, then at 30° C. for another 10 minutes). After incubation, 50 uL of this 2× enzyme/inhibitor mix was added to the corresponding coated well to initiate fibronectin cleavage (20 nM final granzyme B concentration, 8-point inhibitor dilution series starting at 50 uM). The assay was conducted at 30° C. in the TECAN plate reader (TECAN INFINITE® M1000 Pro), which was programmed to monitor the kinetic fluorescence polarization signal (filter set Ex/Em 470 nm/527 nm) with readings taken every minute, for 1 hour. Proteolytic activity was evaluated as the rate of fluorescence enhancement in the parallel emission over the linear range of the reaction. % Inhibition values were calculated from assay controls and the resulting date is shown in Table 7.

T1 sequence (P10144 21-247): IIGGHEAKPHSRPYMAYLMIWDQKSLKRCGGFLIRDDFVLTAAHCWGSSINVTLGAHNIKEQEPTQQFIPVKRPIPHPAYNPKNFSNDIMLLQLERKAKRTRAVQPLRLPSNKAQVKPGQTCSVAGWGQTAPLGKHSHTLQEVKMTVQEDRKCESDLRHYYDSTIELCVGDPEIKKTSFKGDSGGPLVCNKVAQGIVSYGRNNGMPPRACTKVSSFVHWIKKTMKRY

Row | SMILES | inhibition at 50 µM (GzmB [1]) [%] | inhibition at 0.62 µM (GzmB [2]) [%] | inhibition at 5.56 µM (GzmB [2]) [%] | inhibition at 50 µM (GzmB [2]) [%]
1 | CC(C)C(NC(=O)CCC(=O)O)c1ccc(C(=O)NCC(=O)NCc2nn[nH]n2)[nH]1 (racemic) [Compound C3, 3-{[2-methyl-1-[5-({[(2H-1,2,3,4-tetrazol-5-ylmethyl)carbamoyl]methyl}carbamoyl)-1H-pyrrol-2-yl]propyl]carbamoyl}propanoic acid] | 91 |  |  | 
2 | CC(C)C(NC(=O)CCC(=O)O)c1ccc(C(=O)N2CCC[C@H]2C(=O)NCc2nn[nH]n2)[nH]1 (mixture of isomers) [Compound C4, 3-{[2-methyl-1-{5-[(2S)-2-[(2H-1,2,3,4-tetrazol-5-ylmethyl)carbamoyl]pyrrolidine-1-carbonyl]-1H-pyrrol-2-yl}propyl]carbamoyl}propanoic acid] |  | 28 | 56 | 78
3 | O=C(O)CCC(=O)NC(c1ccc(C(=O)N2C[C@@H](O)C[C@H]2C(=O)NCc2nn[nH]n2)[nH]1)C1CCCC1 (stereo partly drawn) [Compound C8, 3-{[cyclopentyl({5-[(2S,4S)-4-hydroxy-2-[(2H-1,2,3,4-tetrazol-5-ylmethyl)carbamoyl]pyrrolidine-1-carbonyl]-1H-pyrrol-2-yl})methyl]carbamoyl}propanoic acid] |  | 63 | 83 | 94

From patent publication US9458138B1, “Pyrrole compounds as granzyme B inhibitors” (viDA Therapeutics Inc., priority 2014, dated 2016)
